Each compound was assayed on HBV (assay: HBV-DNA antiviral assay using HepG2.117 cells). Details: Hepatitis B virus, 72 h, intracellular HBV DNA by qPCR, 3 days incubation.
Type: cell-based, genotype D HBV
In short: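 HepG2.117 cells (genotype D HBV, Tet-off) seeded without doxycycline and treated for 3 days at 9 concentrations (4-fold dilutions) in 2% DMSO. Intracellular HBV DNA measured by qPCR against a standard curve, with viability from ATPlite run in parallel. EC50, EC90 and CC50 fitted relative to DMSO controls.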
With COc1ccc(-n2c(=O)c3c(n4ncc(NS(C)(=O)=O)c24)CN(C(=O)c2ccc(Cl)c(Cl)c2)CC3)cc1 [Compound 26, N-[12-(3,4-dichlorobenzoyl)-7-(4-methoxyphenyl)-8-oxo-2,3,7,12-tetrazatricyclo [7.4.0.0 2,6]trideca-1(9),3,5-trien-5-yl] methanesulfonamide] the EC50 was 500 to 5000 nM.
Compound N#Cc1cc(C(=O)N2CCc3c(n4ncc(Cc5ccccc5)c4n(-c4ccc(-n5cccn5)cc4)c3=O)C2)ccc1Br [Compound 78, 5-[5-benzyl-8-oxo-7-(4-pyrazol-1-ylphenyl)-2,3,7,12-tetrazatricyclo [7.4.0.0 2,6]trideca-1(9),3,5-triene-12-carbonyl]-2-bromo-benzonitrile] has an EC50 of over 5000 nM.
CNC(=O)c1ccc(-n2c(=O)c3c(n4ncc(NCc5ccc(OC(F)F)cc5)c24)CN(C(=O)c2ccc(Cl)c(Cl)c2)CC3)cc1 [Compound 41, 4-[12-(3,4-dichlorobenzoyl)-5-[[4-(difluoromethoxy)phenyl]methylamino]-8-oxo-2,3,7,12-tetrazatricyclo [7.4.0.0 2,6]trideca-1(9),3,5-trien-7-yl]-N-methyl-benzamide] was tested, and the EC50 was 500 to 5000 nM.
O=C(NCc1ccccc1)c1cnn2c3c(c(=O)n(-c4ccccc4)c12)CCN(C(=O)c1ccc(Cl)c(Cl)c1)C3 [Compound 20, N-benzyl-12-(3,4-dichlorobenzoyl)-8-oxo-7-phenyl-2,3,7,12-tetrazatricyclo [7.4.0.0^2,6] trideca-1(9),3,5-triene-5-carboxamide] showed an EC50 of over 5000 nM.
Compound CNC(=O)c1ccc(-n2c(=O)c3c(n4ncc([C@H](C)c5ccccc5)c24)CN(C(=O)c2ccc(Br)c(C#N)c2)CC3)cc1 (stereo in doubt) [Compound 57, 4-[12-(4-bromo-3-cyano-benzoyl)-8-oxo-5-[rac-(1R)-1-phenylethyl]-2,3,7,12-tetrazatricyclo [7.4.0.0 2,6]trideca-1(9),3,5-trien-7-yl]-N-methyl-benzamide] has an EC50 of at most 100 nM.
For Cc1cnn2c3c(c(=O)n(-c4ccccc4)c12)CCN(C(=O)c1ccc(Br)c(F)c1)C3 [Compound 8, 12-(4-bromo-3-fluorobenzoyl)-5-methyl-7-phenyl-2,3,7,12-tetraazatricyclo[7.4.0.0^[2,6]]trideca-1(9),3,5-trien-8-one], the EC50 was 500 to 5000 nM.
COc1cccc(-n2c(=O)c3c(n4ncc(NCc5ccccc5)c24)CN(C(=O)c2ccc(Br)c(Cl)c2)CC3)c1 [Compound 28, 5-(benzylamino)-12-(4-bromo-3-chloro-benzoyl)-7-(3-methoxyphenyl)-2,3,7,12-tetrazatricyclo [7.4.0.0 2,6] trideca-1(9),3,5-trien-8-one] gave an EC50 of 100 to 500 nM.
CNC(=O)c1ccc(-n2c(=O)c3c(n4ncc(Cc5ccccc5)c24)CN(C(=O)c2ccc(Cl)c(Cl)c2)CC3)cc1 [Compound 34, 4-[5-benzyl-12-(3,4-dichlorobenzoyl)-8-oxo-2,3,7,12-tetrazatricyclo [7.4.0.0 2,6]trideca-1(9),3,5-trien-7-yl]-N-methyl-benzamide] showed an EC50 of at most 100 nM.
For CNC(=O)c1ccc(-n2c(=O)c3c(n4ncc(Cc5ccc(OC(F)(F)F)cc5)c24)CN(C(=O)c2ccc(Cl)c(Cl)c2)CC3)cc1 [Compound 36, 4-[12-(3,4-dichlorobenzoyl)-8-oxo-5-[[4-(trifluoromethoxy)phenyl]methyl]-2,3,7,12-tetrazatricyclo [7.4.0.0 2,6]trideca-1(9),3,5-trien-7-yl]-N-methyl-benzamide], the EC50 was 100 to 500 nM.
For CNC(=O)c1ccc(-n2c(=O)c3c(n4ncc(Cc5ccc(C#N)cc5F)c24)CN(C(=O)c2ccc(Br)c(Cl)c2)CC3)cc1 [Compound 85, 4-[12-(4-bromo-3-chloro-benzoyl)-5-[(4-cyano-2-fluoro-phenyl)methyl]-8-oxo-2,3,7,12-tetrazatricyclo [7.4.0.0 2,6]trideca-1(9),3,5-trien-7-yl]-N-methyl-benzamide], the EC50 was at most 100 nM.
With COc1ccc(-n2c(=O)c3c(n4ncc(NS(=O)(=O)Cc5ccccc5)c24)CN(C(=O)c2ccc(Br)c(Cl)c2)CC3)cc1 [Compound 33, N-[12-(4-bromo-3-chloro-benzoyl)-7-(4-methoxyphenyl)-8-oxo-2,3,7,12-tetrazatricyclo [7.4.0.0 2,6]trideca-1(9),3,5-trien-5-yl]-1-phenyl-methanesulfonamide] the EC50 was 500 to 5000 nM.
In the case of CNC(=O)c1ccc(-n2c(=O)c3c(n4ncc(Cc5ccc(OC)cc5)c24)CN(C(=O)c2ccc(Br)c(Cl)c2)CC3)cc1 [Compound 88, 4-[12-(4-bromo-3-chloro-benzoyl)-5-[(4-methoxyphenyl)methyl]-8-oxo-2,3,7,12-tetrazatricyclo [7.4.0.0 2,6]trideca-1(9),3,5-trien-7-yl]-N-methyl-benzamide], the EC50 is reported as at most 100 nM.
CNC(=O)c1ccc(-n2c(=O)c3c(n4ncc(Nc5ccccc5)c24)CN(C(=O)c2ccc(Cl)c(Cl)c2)CC3)cc1 [Compound 39, 4-[5-anilino-12-(3,4-dichlorobenzoyl)-8-oxo-2,3,7,12-tetrazatricyclo [7.4.0.0 2,6]trideca-1(9),3,5-trien-7-yl]-N-methyl-benzamide] was tested, and the EC50 was at most 100 nM.
CNC(=O)c1ccc(-n2c(=O)c3c(n4ncc(Cc5ccc(OC)cc5F)c24)CN(C(=O)c2ccc(Br)c(Cl)c2)CC3)cc1 [Compound 87, 4-[12-(4-bromo-3-chloro-benzoyl)-5-[(2-fluoro-4-methoxy-phenyl)methyl]-8-oxo-2,3,7,12-tetrazatricyclo [7.4.0.0 2,6]trideca-1(9),3,5-trien-7-yl]-N-methyl-benzamide] was tested, and the EC50 was at most 100 nM.
In the case of COc1ccc(Cn2c(=O)c3c(n4ncc(Cc5ccccc5)c24)CN(C(=O)c2ccc(Cl)c(Cl)c2)CC3)cc1 [Compound 14, 5-benzyl-12-(3,4-dichlorobenzoyl)-7-[(4-methoxyphenyl)methyl]-2,3,7,12-tetrazatricyclo [7.4.0.0^2,6] trideca-1(9),3,5-trien-8-one], the EC50 is reported as 500 to 5000 nM.
Compound CNC(=O)c1ccc(-n2c(=O)c3c(n4ncc(Cc5ccc(F)cc5)c24)CN(C(=O)c2ccc(Br)c(C#N)c2)CC3)cc1 [Compound 60, 4-[12-(4-bromo-3-cyano-benzoyl)-5-[(4-fluorophenyl)methyl]-8-oxo-2,3,7,12-tetrazatricyclo [7.4.0.0 2,6]trideca-1(9),3,5-trien-7-yl]-N-methyl-benzamide] has an EC50 of at most 100 nM.
NC(=O)c1ccc(-n2c(=O)c3c(n4ncc(NCc5ccccc5)c24)CN(C(=O)c2ccc(Br)c(Cl)c2)CC3)cc1 [Compound 49, 4-[5-(benzylamino)-12-(4-bromo-3-chloro-benzoyl)-8-oxo-2,3,7,12-tetrazatricyclo [7.4.0.0 2,6]trideca-1(9),3,5-trien-7-yl] benzamide] gave an EC50 of at most 100 nM.
Work on NC(=O)c1ccc(-n2c(=O)c3c(n4ncc(NCc5ccccc5)c24)CN(C(=O)c2ccc(Cl)c(Cl)c2)CC3)cc1 [Compound 50, 4-[5-(benzylamino)-12-(3,4-dichlorobenzoyl)-8-oxo-2,3,7,12-tetrazatricyclo [7.4.0.0 2,6]trideca-1(9),3,5-trien-7-yl] benzamide] yielded an EC50 of at most 100 nM.
In the case of O=C(NC1CC1)c1ccc(-n2c(=O)c3c(n4ncc(Cc5ccccc5)c24)CN(C(=O)c2ccc(Br)c(Cl)c2)CC3)cc1 [Compound 68, 4-[5-benzyl-12-(4-bromo-3-chloro-benzoyl)-8-oxo-2,3,7,12-tetrazatricyclo [7.4.0.0 2,6]trideca-1(9),3,5-trien-7-yl]-N-cyclopropyl-benzamide], the EC50 is reported as over 5000 nM.
Work on CNC(=O)c1ccc(-n2c(=O)c3c(n4ncc(NCc5ccc(OC(F)F)cc5)c24)CN(C(=O)c2ccc(Br)c(Cl)c2)CC3)cc1 [Compound 46, 4-[12-(4-bromo-3-chloro-benzoyl)-5-[[4-(difluoromethoxy)phenyl]methylamino]-8-oxo-2,3,7,12-tetrazatricyclo [7.4.0.0 2,6]trideca-1(9),3,5-trien-7-yl]-N-methyl-benzamide] yielded an EC50 of at most 100 nM.
In the case of CNC(=O)c1ccc(-n2c(=O)c3c(n4ncc(N[C@@H](C)c5ccccc5)c24)CN(C(=O)c2ccc(Br)c(Cl)c2)CC3)cc1 (stereo in doubt) [Compound 74, 4-[12-(4-bromo-3-chloro-benzoyl)-8-oxo-5-[[rac-(1S)-1-phenylethyl]amino]-2,3,7,12-tetrazatricyclo [7.4.0.0 2,6]trideca-1(9),3,5-trien-7-yl]-N-methyl-benzamide], the EC50 is reported as at most 100 nM.
Work on CNC(=O)c1ccc(-n2c(=O)c3c(n4ncc(Cc5ccccc5)c24)CN(C(=O)c2ccc(Br)c(C#N)c2)CC3)cc1 [Compound 37, 4-[5-benzyl-12-(4-bromo-3-cyano-benzoyl)-8-oxo-2,3,7,12-tetrazatricyclo [7.4.0.0 2,6]trideca-1(9),3,5-trien-7-yl]-N-methyl-benzamide] yielded an EC50 of at most 100 nM.
For N#Cc1cc(C(=O)N2CCc3c(n4ncc(Cc5ccccc5)c4n(-c4ccc(-c5ncc[nH]5)cc4)c3=O)C2)ccc1Br [Compound 73, 5-[5-benzyl-7-[4-(1H-imidazol-2-yl)phenyl]-8-oxo-2,3,7,12-tetrazatricyclo [7.4.0.0 2,6]trideca-1(9),3,5-triene-12-carbonyl]-2-bromo-benzonitrile], the EC50 was 500 to 5000 nM.

Same assay, conditions: intracellular HBV DNA by qPCR, 3 days incubation
Compound O=C(c1ccc(Br)c(Cl)c1)N1CCc2c(n3nccc3n(Cc3ccccc3)c2=O)C1 [Compound 6, 7-benzyl-12-(4-bromo-3-chlorobenzoyl)-2,3,7,12-tetraazatricyclo[7.4.0.0^[2,6]]trideca-1(9),3,5-trien-8-one] has an EC50 of 500 to 5000 nM.
CNC(=O)c1ccc(-n2c(=O)c3c(n4ncc(Cc5ccccc5)c24)CN(C(=O)c2ccc(Br)c(Cl)c2)C(C)C3)cc1 (single isomer, unassigned) [Compound 72, 4-[(11S*)-5-benzyl-12-(4-bromo-3-chlorobenzoyl)-11-methyl-8-oxo-2,3,7,12-tetraazatricyclo[7.4.0.0^[2,6]]trideca-1(9),3,5-trien-7-yl]-N-methylbenzamide] gave an EC50 of at most 100 nM.
COc1ccc(-n2c(=O)c3c(n4ncc(NCc5ccccc5)c24)CN(C(=O)c2ccc(Cl)c(Cl)c2)CC3)cc1 [Compound 25, 5-(benzylamino)-12-(3,4-dichlorobenzoyl)-7-(4-methoxyphenyl)-2,3,7,12-tetraazatricyclo[7.4.0.0^[2,6]]trideca-1(9),3,5-trien-8-one] was tested, and the EC50 was at most 100 nM.
